# Assay results published in the supplement of paper PMC10307832.
# Legend:
# Experiment in all cases: relative viability (nuclei count vs DMSO), 5 days (fraction); higher = more cells survive
# BEN = test system: BEN
# Method in brief: (§1)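 Relative viability was taken as the ratio of nuclei in treated wells to nuclei in vehicle wells. Lung cancer cell lines in 1536-well plates received compounds by pin tool one day after seeding, either one drug alone or a fixed anchor-drug dose plus five library-drug doses (not always all listed) in √10 steps. Nuclei were counted on 4× images after 5 days of treatment, and values are medians of duplicate plates.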
# NCI-H460 = test system: NCI-H460
# Method in brief: as §1
# NCI-H838 = test system: NCI-H838
# Method in brief: as §1
# LOU-NH91 = test system: LOU-NH91
# Method in brief: as §1
# NCI-H1437 = test system: NCI-H1437
# Method in brief: as §1
# NCI-H1651 = test system: NCI-H1651
# Method in brief: as §1
# NCI-H1975 = test system: NCI-H1975
# Method in brief: as §1
# NCI-H1734 = test system: NCI-H1734
# Method in brief: as §1
# NCI-H1563 = test system: NCI-H1563
# Method in brief: as §1
# HCC-366 = test system: HCC-366
# Method in brief: as §1
# COR-L23 = test system: COR-L23
# Method in brief: as §1
# NCI-H2023 = test system: NCI-H2023
# Method in brief: as §1
# SK-LU-1 = test system: SK-LU-1
# Method in brief: as §1
# NCI-H358 = test system: NCI-H358
# Method in brief: as §1
# NCI-H1650 = test system: NCI-H1650
# Method in brief: as §1
# NCI-H1355 = test system: NCI-H1355
# Method in brief: as §1
# NCI-H441 = test system: NCI-H441
# Method in brief: as §1
# LU99A = test system: LU99A
# Method in brief: as §1
# NCI-H2085 = test system: NCI-H2085
# Method in brief: as §1
# CAL-12T = test system: CAL-12T
# Method in brief: as §1
smiles,measurement,setting,value
Nc1ccn([C@@H]2O[C@H](CO)[C@@H](O)[C@@H]2O)c(=O)n1 [Cytarabine] + C[C@@H](Oc1cc(-c2cnn(C3CCNCC3)c2)cnc1N)c1c(Cl)ccc(F)c1Cl [Crizotinib] (partner 1 µM),relative viability,BEN; first compound 0.005 µM,0.605
same,relative viability,BEN; first compound 0.01581 µM,0.66
same,relative viability,BEN; first compound 0.05 µM,0.449
same,relative viability,BEN; first compound 0.1581 µM,0.311
same,relative viability,BEN; first compound 0.5 µM,0.292
same,relative viability,NCI-H460; first compound 0.005 µM,0.77
same,relative viability,NCI-H460; first compound 0.01581 µM,0.851
same,relative viability,NCI-H460; first compound 0.05 µM,0.144
same,relative viability,NCI-H460; first compound 0.1581 µM,0.0229
same,relative viability,NCI-H460; first compound 0.5 µM,0.0238
same,relative viability,NCI-H838; first compound 0.005 µM,0.715
same,relative viability,NCI-H838; first compound 0.01581 µM,0.877
same,relative viability,NCI-H838; first compound 0.05 µM,0.699
same,relative viability,NCI-H838; first compound 0.1581 µM,0.339
same,relative viability,NCI-H838; first compound 0.5 µM,0.224
same,relative viability,LOU-NH91; first compound 0.005 µM,0.753
same,relative viability,LOU-NH91; first compound 0.01581 µM,0.714
same,relative viability,LOU-NH91; first compound 0.05 µM,0.637
same,relative viability,LOU-NH91; first compound 0.1581 µM,0.511
same,relative viability,LOU-NH91; first compound 0.5 µM,0.56
same,relative viability,NCI-H1437; first compound 0.005 µM,0.576
same,relative viability,NCI-H1437; first compound 0.01581 µM,0.817
same,relative viability,NCI-H1437; first compound 0.05 µM,0.472
same,relative viability,NCI-H1437; first compound 0.1581 µM,0.258
same,relative viability,NCI-H1437; first compound 0.5 µM,0.156
same,relative viability,NCI-H1651; first compound 0.005 µM,0.869
same,relative viability,NCI-H1651; first compound 0.01581 µM,0.904
same,relative viability,NCI-H1651; first compound 0.05 µM,0.834
same,relative viability,NCI-H1651; first compound 0.1581 µM,0.584
same,relative viability,NCI-H1651; first compound 0.5 µM,0.549
same,relative viability,NCI-H1975; first compound 0.005 µM,0.801
same,relative viability,NCI-H1975; first compound 0.01581 µM,1.01
same,relative viability,NCI-H1975; first compound 0.05 µM,0.994
same,relative viability,NCI-H1975; first compound 0.1581 µM,0.667
same,relative viability,NCI-H1975; first compound 0.5 µM,0.373
same,relative viability,NCI-H1734; first compound 0.005 µM,0.473
same,relative viability,NCI-H1734; first compound 0.01581 µM,0.326
same,relative viability,NCI-H1734; first compound 0.05 µM,0.23
same,relative viability,NCI-H1734; first compound 0.1581 µM,0.143
same,relative viability,NCI-H1734; first compound 0.5 µM,0.157
same,relative viability,NCI-H1563; first compound 0.005 µM,0.806
same,relative viability,NCI-H1563; first compound 0.01581 µM,0.916
same,relative viability,NCI-H1563; first compound 0.05 µM,0.852
same,relative viability,NCI-H1563; first compound 0.1581 µM,0.809
same,relative viability,NCI-H1563; first compound 0.5 µM,0.606
same,relative viability,HCC-366; first compound 0.005 µM,0.405
same,relative viability,HCC-366; first compound 0.01581 µM,0.43
same,relative viability,HCC-366; first compound 0.05 µM,0.216
same,relative viability,HCC-366; first compound 0.1581 µM,0.026
same,relative viability,HCC-366; first compound 0.5 µM,0.0284
same,relative viability,COR-L23; first compound 0.005 µM,0.578
same,relative viability,COR-L23; first compound 0.01581 µM,0.631
same,relative viability,COR-L23; first compound 0.05 µM,0.405
same,relative viability,COR-L23; first compound 0.1581 µM,0.166
same,relative viability,COR-L23; first compound 0.5 µM,0.122
same,relative viability,NCI-H2023; first compound 0.005 µM,0.366
same,relative viability,NCI-H2023; first compound 0.01581 µM,0.368
same,relative viability,NCI-H2023; first compound 0.05 µM,0.113
same,relative viability,NCI-H2023; first compound 0.1581 µM,0.101
same,relative viability,NCI-H2023; first compound 0.5 µM,0.0749
same,relative viability,SK-LU-1; first compound 0.005 µM,0.957
same,relative viability,SK-LU-1; first compound 0.01581 µM,0.83
same,relative viability,SK-LU-1; first compound 0.05 µM,0.694
same,relative viability,SK-LU-1; first compound 0.1581 µM,0.605
same,relative viability,SK-LU-1; first compound 0.5 µM,0.398
same,relative viability,NCI-H358; first compound 0.005 µM,0.488
same,relative viability,NCI-H358; first compound 0.01581 µM,0.5
same,relative viability,NCI-H358; first compound 0.05 µM,0.352
same,relative viability,NCI-H358; first compound 0.1581 µM,0.319
same,relative viability,NCI-H358; first compound 0.5 µM,0.231
same,relative viability,NCI-H1650; first compound 0.005 µM,0.752
same,relative viability,NCI-H1650; first compound 0.01581 µM,1.05
same,relative viability,NCI-H1650; first compound 0.05 µM,0.544
same,relative viability,NCI-H1650; first compound 0.1581 µM,0.315
same,relative viability,NCI-H1650; first compound 0.5 µM,0.188
same,relative viability,NCI-H1355; first compound 0.005 µM,0.998
same,relative viability,NCI-H1355; first compound 0.01581 µM,1.03
same,relative viability,NCI-H1355; first compound 0.05 µM,0.973
same,relative viability,NCI-H1355; first compound 0.1581 µM,0.46
same,relative viability,NCI-H1355; first compound 0.5 µM,0.399
same,relative viability,NCI-H441; first compound 0.005 µM,0.776
same,relative viability,NCI-H441; first compound 0.01581 µM,0.824
same,relative viability,NCI-H441; first compound 0.05 µM,0.598
same,relative viability,NCI-H441; first compound 0.1581 µM,0.199
same,relative viability,NCI-H441; first compound 0.5 µM,0.165
same,relative viability,LU99A; first compound 0.005 µM,0.62
same,relative viability,LU99A; first compound 0.01581 µM,0.549
same,relative viability,LU99A; first compound 0.05 µM,0.517
same,relative viability,LU99A; first compound 0.1581 µM,0.527
same,relative viability,LU99A; first compound 0.5 µM,0.498
same,relative viability,NCI-H2085; first compound 0.005 µM,0.718
same,relative viability,NCI-H2085; first compound 0.01581 µM,0.883
same,relative viability,NCI-H2085; first compound 0.05 µM,0.799
same,relative viability,NCI-H2085; first compound 0.1581 µM,0.552
same,relative viability,NCI-H2085; first compound 0.5 µM,0.621
same,relative viability,CAL-12T; first compound 0.005 µM,0.413
same,relative viability,CAL-12T; first compound 0.01581 µM,0.753
same,relative viability,CAL-12T; first compound 0.05 µM,0.703
same,relative viability,CAL-12T; first compound 0.1581 µM,0.511
same,relative viability,CAL-12T; first compound 0.5 µM,0.153
